Results published in patent US8017612B2, “Piperazine compound and use thereof as a HCV polymerase inhibitor” (priority 2006, dated 2011).
pIC50: −log10 of the molar value.

Assays:
[1] = target: T1, HCV polymerase (NS5B) type 1b (Hepatitis C virus genotype 1b, UniProt P26663); assay: Assay of enzyme (HCV polymerase) inhibitory activity, type 1b enzyme; assay type: biochemical, HCV BK strain (type 1b); conditions: HCV polymerase inhibitory activity IC50, 1b, type 1b enzyme
T1 construct: a region encoding NS5B (J Virol 1991 March, 65(3), 1105-13, 544 amino acids after deletion of 47 amino acids on the C-terminal); 6xHis (C); made in house; host or cells: Escherichia coli
Procedure, shortened: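 His-tagged, C-terminally truncated NS5B (BK strain, 1b; 0.5 μg/ml) incubated with compound 60 min at 25 °C on 3′UTR-derived substrate RNA (5 μg/ml), 50 μM ATP/GTP/CTP, 2 μM UTP plus [3H]UTP, pH 7.5. Acid-precipitated RNA counted; IC50 from radioactivity with and without compound.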

[2] = target: T2, HCV polymerase (NS5B) type 1a (Hepatitis C virus genotype 1a, UniProt P26664); assay: Assay of enzyme (HCV polymerase) inhibitory activity, type 1a enzyme; assay type: biochemical, HCV type 1a (cloned from the blood of patients); conditions: HCV polymerase inhibitory activity IC50, 1a, type 1a enzyme
T2 construct: made in house; host or cells: Escherichia coli (by the 'similar method' of the 1b enzyme)
Procedure, shortened: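 His-tagged NS5B, C-terminal 47 residues deleted, type 1a at 1.5 μg/ml, with 5 μg/ml HCV 3′UTR substrate RNA, 50 μM ATP/GTP/CTP, 2 μM UTP plus [3H]UTP, pH 7.5 Tris, 5 mM MgCl2; 60 min at 25° C. TCA-precipitated RNA counted by scintillation; IC50 from radioactivity with vs. without compound.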

| Compound | pIC50 [1] | pIC50 [2] |
| --- | --- | --- |
| COC1(c2ncc3sc(N4CCN(S(=O)(=O)c5ccc(OC(F)(F)F)cc5)[C@@H](C(=O)NCc5ccc(OC(F)(F)F)cc5)C4)nc3n2)CC1 [Example 1079, (R)-4-[5-(1-methoxy-cyclopropyl)-thiazolo[4,5-d]pyrimidin-2-yl]-1-(4-trifluoromethoxy-benzenesulfonyl)-piperazine-2-carboxylic acid 4-trifluoromethoxy-benzylamide] | > 7.00 | > 7.00 |
| O=C(NCc1ccc(OC(F)(F)F)cc1)[C@H]1CN(c2nc3nc(C4(O)CC4)ncc3s2)CCN1S(=O)(=O)c1ccc(OC(F)(F)F)cc1 [Example 1080, (R)-4-[5-(1-hydroxy-cyclopropyl)-thiazolo[4,5-d]pyrimidin-2-yl]-1-(4-trifluoromethoxy-benzenesulfonyl)-piperazine-2-carboxylic acid 4-trifluoromethoxy-benzylamide] | > 7.00 | > 7.00 |
| CCCc1ccc(CNC(=O)[C@H]2CN(c3nc4cc(C(=O)OC(C)(C)C)ncc4s3)CCN2S(=O)(=O)c2ccc(OC(F)(F)F)cc2)cc1 [Example 1081, 2-[(R)-3-(4-propyl-benzylcarbamoyl)-4-(4-trifluoromethoxy-benzenesulfonyl)-piperazin-1-yl]-thiazolo[5,4-c]pyridine-6-carboxylic acid tert-butyl ester] | > 7.00 | > 7.00 |
| CCCc1ccc(CNC(=O)[C@H]2CN(c3nc4cc(C(=O)O)ncc4s3)CCN2S(=O)(=O)c2ccc(OC(F)(F)F)cc2)cc1 [Example 1082, 2-[(R)-3-(4-propyl-benzylcarbamoyl)-4-(4-trifluoromethoxy-benzenesulfonyl)-piperazin-1-yl]-thiazolo[5,4-c]pyridine-6-carboxylic acid] | > 7.00 | > 7.00 |
| CCCc1ccc(CNC(=O)[C@H]2CN(c3nc4c(C(=O)OCC)cncc4s3)CCN2S(=O)(=O)c2ccc(OC(F)(F)F)cc2)cc1 [Example 1083, 2-[(R)-3-(4-propyl-benzylcarbamoyl)-4-(4-trifluoromethoxy-benzenesulfonyl)-piperazin-1-yl]-thiazolo[5,4-c]pyridine-7-carboxylic acid ethyl ester] | > 7.00 | > 7.00 |
| CCCc1ccc(CNC(=O)[C@H]2CN(c3nc4c(C(=O)O)cncc4s3)CCN2S(=O)(=O)c2ccc(OC(F)(F)F)cc2)cc1 [Example 1084, 2-[(R)-3-(4-propyl-benzylcarbamoyl)-4-(4-trifluoromethoxy-benzenesulfonyl)-piperazin-1-yl]-thiazolo[5,4-c]pyridine-7-carboxylic acid] | > 7.00 | > 7.00 |
| O=C(NCc1ccc(OC(F)F)c(F)c1)[C@H]1CN(c2nc3nc(C(F)(F)F)ncc3s2)CCN1S(=O)(=O)c1ccc(C(F)(F)F)cc1 [Example 1085, (R)-1-(4-trifluoromethyl-benzenesulfonyl)-4-(5-trifluoromethyl-thiazolo[4,5-d]pyrimidin-2-yl)-piperazine-2-carboxylic acid 4-difluoromethoxy-3-fluoro-benzylamide] | > 7.00 | > 7.00 |
| O=C(NCc1ccc(OC(F)(F)F)cc1)[C@H]1CN(c2nc3ccc(=O)[nH]c3s2)CCN1S(=O)(=O)c1ccc(C(F)(F)F)cc1 [Example 1086, (R)-4-(5-oxo-4,5-dihydro-thiazolo[5,4-b]pyridin-2-yl)-1-(4-trifluoromethyl-benzenesulfonyl)-piperazine-2-carboxylic acid 4-trifluoromethoxy-benzylamide] | > 7.00 | > 7.00 |
| O=C(NCc1ccc(OC(F)(F)F)cc1)[C@H]1CN(c2nc3nc(OC(F)F)ncc3s2)CCN1S(=O)(=O)c1ccc(OC(F)(F)F)cc1 [Example 1087, (R)-4-(5-difluoromethoxy-thiazolo[4,5-d]pyrimidin-2-yl)-1-(4-trifluoromethoxy-benzenesulfonyl)-piperazine-2-carboxylic acid 4-trifluoromethoxy-benzylamide] | > 7.00 | > 7.00 |
| CC(C)c1cc(=O)nc2sc(N3CCN(S(=O)(=O)c4ccc(OC(F)(F)F)cc4)[C@@H](C(=O)NCc4ccc(OC(F)(F)F)cc4)C3)nn12 [Example 1088, (R)-4-(5-isopropyl-7-oxo-7H-[1,3,4]thiadiazolo[3,2-a]pyrimidin-2-yl)-1-(4-trifluoromethoxy-benzenesulfonyl)-piperazine-2-carboxylic acid 4-trifluoromethoxy-benzylamide] | > 7.00 | > 7.00 |
| CC(C)c1cc(=O)nc2sc(N3CCN(S(=O)(=O)c4ccc(OC(F)(F)F)cc4)[C@@H](C(=O)NCc4ccc(OC(F)F)cc4)C3)nn12 [Example 1089, (R)-4-(5-isopropyl-7-oxo-7H-[1,3,4]thiadiazolo[3,2-a]pyrimidin-2-yl)-1-(4-trifluoromethoxy-benzenesulfonyl)-piperazine-2-carboxylic acid 4-difluoromethoxy-benzylamide] | > 7.00 | > 7.00 |
| Nc1nc(C2CC2)nc2nc(N3CCN(S(=O)(=O)c4ccc(OC(F)(F)F)cc4)[C@@H](C(=O)NCc4ccc(OC(F)(F)F)cc4)C3)sc12 [Example 1090, (R)-4-(7-amino-5-cyclopropyl-thiazolo[4,5-d]pyrimidin-2-yl)-1-(4-trifluoromethoxy-benzenesulfonyl)-piperazine-2-carboxylic acid 4-trifluoromethoxy-benzylamide] | > 7.00 | > 7.00 |
| CC(C)(O)c1nc(N)c2sc(N3CCN(S(=O)(=O)c4ccc(OC(F)(F)F)cc4)[C@@H](C(=O)NCc4ccc(OC(F)(F)F)cc4)C3)nc2n1 [Example 1091, (R)-4-[7-amino-5-(1-hydroxy-1-methyl-ethyl)-thiazolo[4,5-d]pyrimidin-2-yl]-1-(4-trifluoromethoxy-benzenesulfonyl)-piperazine-2-carboxylic acid 4-trifluoromethoxy-benzylamide] | > 7.00 | > 7.00 |
| CCCc1ccc(CNC(=O)[C@H]2CN(c3nc(C)c(C(O)C(=O)O)s3)CCN2S(=O)(=O)c2ccc(OC(F)(F)F)cc2)cc1 (stereo partly drawn) [Example 1092, hydroxy-{4-methyl-2-[(R)-3-(4-propyl-benzylcarbamoyl)-4-(4-trifluoromethoxy-benzenesulfonyl)-piperazin-1-yl]-thiazol-5-yl}-acetic acid] | > 7.00 | 6.00 to 7.00 |
| CCN(C)c1ccc(CNC(=O)[C@H]2CN(c3nc(Cl)c(C(=O)O)s3)CCN2S(=O)(=O)c2ccc(OC(F)(F)F)cc2)cc1 [Example 1093, 4-chloro-2-[(R)-3-[4-(ethyl-methyl-amino)-benzylcarbamoyl]-4-(4-trifluoromethoxy-benzenesulfonyl)-piperazin-1-yl]-thiazole-5-carboxylic acid] | > 7.00 | > 7.00 |
| CCCc1ccc(CNC(=O)[C@H]2CN(c3cc(C)n(CC(=O)O)n3)CCN2S(=O)(=O)c2ccc(OC(F)(F)F)cc2)cc1 [Example 1094, {5-methyl-3-[(R)-3-(4-propyl-benzylcarbamoyl)-4-(4-trifluoromethoxy-benzenesulfonyl)-piperazin-1-yl]-pyrazol-1-yl}-acetic acid] | 6.00 to 7.00 | 6.00 to 7.00 |
| CC[N+](CC)(CC)Cc1cnc(N2CCN(S(=O)(=O)c3ccc(OC(F)(F)F)cc3)[C@@H](C(=O)NCc3ccc(C(C)(C)C)cc3)C2)cn1 [Example 1095, [(R)-3-(4-tert-butyl-benzylcarbamoyl)-4-(4-trifluoromethoxy-benzenesulfonyl)-3,4,5,6-tetrahydro-2H-[1,2′]bipyrazinyl-5′-ylmethyl]-triethyl-ammonium trifluoro-methanesulfonate] | 6.00 to 7.00 | 6.00 to 7.00 |
| CCC(F)(F)c1ccc(CNC(=O)[C@H]2CN(C(=O)Cn3nnc(N)n3)CCN2S(=O)(=O)c2ccc(OC(F)(F)F)cc2)cc1 [Example 1096, (R)-4-[2-(5-amino-tetrazol-2-yl)-acetyl]-1-(4-trifluoromethoxy-benzenesulfonyl)-piperazine-2-carboxylic acid 4-(1,1-difluoro-propyl)-benzylamide] | > 7.00 | > 7.00 |
| CCC(F)(F)c1ccc(CNC(=O)[C@H]2CN(C(=O)Cn3nnnc3N)CCN2S(=O)(=O)c2ccc(OC(F)(F)F)cc2)cc1 [Example 1097, (R)-4-[2-(5-amino-tetrazol-1-yl)-acetyl]-1-(4-trifluoromethoxy-benzenesulfonyl)-piperazine-2-carboxylic acid 4-(1,1-difluoro-propyl)-benzylamide] | 6.00 to 7.00 | 6.00 to 7.00 |
| O=C(NCc1ccc(OC(F)(F)F)cc1)[C@H]1CN(c2nc3nc(CCO)ncc3s2)CCN1S(=O)(=O)c1ccc(OC(F)(F)F)cc1 [Example 1098, (R)-4-[5-(2-hydroxy-ethyl)-thiazolo[4,5-d]pyrimidin-2-yl]-1-(4-trifluoromethoxy-benzenesulfonyl)-piperazine-2-carboxylic acid 4-trifluoromethoxy-benzylamide] | > 7.00 | > 7.00 |
| O=C(NCc1ccc(OC(F)(F)F)cc1)[C@H]1CN(c2nc3nc(C4CC4)ncc3s2)CCN1S(=O)(=O)c1ccc(C2CC2)cc1 [Example 1099, (R)-1-(4-cyclopropyl-benzenesulfonyl)-4-(5-cyclopropyl-thiazolo [4,5-d]pyrimidin-2-yl)-piperazine-2-carboxylic acid 4-trifluoromethoxy-benzylamide] | > 7.00 | > 7.00 |
